# Reference: patent US5079241A, “Cephalosporin derivatives and pharmaceutical compositions in which they are present” (Sanofi, priority 1987, dated 1992)
# Columns and labels:
# [1] = pharmacokinetic behavior in baboons, 20 mg/kg (Tables 5 and 7); type: in vivo; conditions: for Plasma concentration at 24 h / Plasma concentration at 48 h / Cmax / half-life / AUC(0-inf) / dose excreted at 6 h: 20 mg/kg (Table 7); for Cmax / half-life / AUC(0-inf) / concentration at 0.08 h / concentration at 0.16 h / concentration at 0.25 h / concentration at 0.33 h / concentration at 0.5 h / concentration at 0.75 h / concentration at 1 h / concentration at 1.5 h / concentration at 2 h / concentration at 3 h / concentration at 4 h / concentration at 5 h / concentration at 6 h / concentration at 24 h / concentration at 48 h / dose excreted at 6 h: baboon; for Cmax / half-life / AUC(0-inf) / concentration at 0.08 h / concentration at 0.16 h / concentration at 0.25 h / concentration at 0.33 h / concentration at 0.5 h / concentration at 0.75 h / concentration at 1 h / concentration at 1.5 h / concentration at 2 h / concentration at 3 h / concentration at 4 h / concentration at 5 h / concentration at 6 h / concentration at 24 h / concentration at 48 h: plasma; for Cmax: read-out: Maximum plasma concentration; for half-life: read-out: t1/2 β (converted); for AUC(0-inf): trapezium method, read-out: AUC 0-.infin.; for concentration at 0.08 h / concentration at 0.16 h / concentration at 0.25 h / concentration at 0.33 h / concentration at 0.5 h / concentration at 0.75 h / concentration at 1 h / concentration at 1.5 h / concentration at 2 h / concentration at 3 h / concentration at 4 h / concentration at 5 h / concentration at 6 h / concentration at 24 h / concentration at 48 h: 20 mg/kg; for dose excreted at 6 h: urine, read-out: Excretion in urine at 6 h
# Protocol: (§1) Furthermore, the pharmacokinetic behavior of the products according to the invention was studied in baboons after administration at a dose of 20 mg/kg by intramuscular injection or intravenous injection.
# (§2) Blood samples taken at various times after administration are used to determine the plasma concentration of the product studied by microbiological assay.
# (§3) It is thus possible to construct the curve showing the plasma concentration as a function of time, and to determine different pharmacokinetic parameters of the compound studied:
# (§4) the elimination half-life (t1/2 β) is calculated by the formula [formula] in which β represents the elimination gradient or slope;
# (§5) the area under the curve (AUC) is determined by the trapezium method.
# (§6) The plasma concentrations obtained with various products of the invention are collated in Tables 4 and 5. They are expressed in μg/ml.
# [2] = test system: Providencia 155; experiment: bacteriostatic action in vitro by the dilution method (MIC); type: cell-based; conditions: read-out: minimum inhibitory concentrations (MIC)
# Protocol: (§7) The bacteriostatic action was determined in vitro by the dilution method. The study was carried out on both Gram-positive strains and Gram-negative strains.
# (§8) The results for various products according to the invention, expressed as minimum inhibitory concentrations (MIC - μg/ml), are collated in Table 3.
# [3] = test system: Staph. aureus Smith; experiment: as above; type: cell-based; conditions: Staphylococcus aureus, read-out: minimum inhibitory concentrations (MIC)
# Protocol: as §7, §8
# [4] = test system: Escherichia coli SOL RL 90; experiment: as above; type: cell-based; conditions: SOLRL90, read-out: minimum inhibitory concentrations (MIC)
# Protocol: as §7, §8
# [5] = test system: Pseudomonas aeruginosa NCTC 8203; experiment: as above; type: cell-based; conditions: NCTC8203, read-out: minimum inhibitory concentrations (MIC)
# Protocol: as §7, §8
# [6] = test system: Proteus vulgaris GN 76/C-1; experiment: as above; type: cell-based; conditions: GN76, read-out: minimum inhibitory concentrations (MIC)
# Protocol: as §7, §8
# [7] = test system: Klebsiella pneumoniae R30; experiment: as above; type: cell-based; conditions: read-out: minimum inhibitory concentrations (MIC)
# Protocol: as §7, §8
# [8] = test system: Escherichia coli C1/Col E1::Tn3; experiment: as above; type: cell-based; conditions: read-out: minimum inhibitory concentrations (MIC)
# Protocol: as §7, §8
# [9] = pharmacokinetic behavior in baboons, 20 mg/kg (Tables 4 and 6); type: in vivo; conditions: baboon; for Tmax / Cmax / half-life / AUC(0-t) at 6 h / concentration at 6 h / concentration at 10 min / concentration at 20 min / concentration at 0.5 h / concentration at 0.75 h / concentration at 1 h / concentration at 1.5 h / concentration at 2 h / concentration at 3 h / concentration at 4 h / concentration at 5 h / concentration at 5.5 h: plasma; for Cmax: read-out: Max plasma concentration; for half-life: read-out: t1/2 β; for AUC(0-t) at 6 h: trapezium method; for concentration at 6 h / concentration at 10 min / concentration at 20 min / concentration at 0.5 h / concentration at 0.75 h / concentration at 1 h / concentration at 1.5 h / concentration at 2 h / concentration at 3 h / concentration at 4 h / concentration at 5 h / concentration at 5.5 h / dose excreted at 6 h: 20 mg/kg; for concentration at 0.5 h: 30 minutes; for concentration at 0.75 h: 45 minutes; for concentration at 1 h: 60 minutes; for concentration at 1.5 h: 90 minutes; for concentration at 2 h: 120 minutes; for concentration at 3 h: 180 minutes; for concentration at 4 h: 240 minutes; for concentration at 5 h: 300 minutes; for concentration at 5.5 h: 330 minutes; for dose excreted at 6 h: urine, 6 h (Table 6), read-out: Excretion in the urine
# Protocol: as §1, §2, §3, §4, §5, §6
# [10] = protein binding by comparing two standard scales in baboon plasma and phosphate buffer; type: in vitro ADME; conditions: baboon plasma vs phosphate buffer (pH 7, 0.03M)
# Text: Furthermore, the protein binding is obtained by comparing two standard scales, one being prepared in baboon plasma and the other in phosphate buffer (pH 7, 0.03M).
# [11] = 20 mg/kg (Table 6), read-out: Plasma concentration at 6 h
# [12] = 360 minutes, read-out: plasma concentration
structure (smiles),measurement,setting,value
"CO/N=C(\C(=O)NC1C(=O)N2C(C(=O)O)=C(COC(=O)c3ccc(NS(=O)(=O)CCN)c(O)c3)CSC12)c1csc(N)n1 (stereo not drawn) [SR 44337, 7-[2-(2-Aminothiazol-4-yl)-2-methoxyiminoacetamido]-3-[[4-(2-aminoethylsulfonamido)-3-hydroxybenzoyl]oxymethyl]-3-cephem-4-carboxylic acid bis-trifluoroacetate, syn isomer]",increase in area under the curve relative to reference product C,[1],2.7 fold
same,Plasma concentration at 24 h,[1],39.0 µg/mL
same,Plasma concentration at 48 h,[1],14.4 µg/mL
same,"plasma concentration at 24 hours, times higher than reference product C",[1]; 24 hours,5 times
same,"plasma concentration at 48 hours, times higher than reference product C",[1]; 48 hours,24 times
same,Cmax,[1],266 µg/mL
same,half-life,[1],13.9 h
same,AUC(0-inf),[1],3320 µg·h/mL
same,concentration at 0.08 h,[1],266 µg/mL
same,concentration at 0.16 h,[1],251 µg/mL
same,concentration at 0.25 h,[1],238 µg/mL
same,concentration at 0.33 h,[1],206 µg/mL
same,concentration at 0.5 h,[1],194 µg/mL
same,concentration at 0.75 h,[1],190 µg/mL
same,concentration at 1 h,[1],182 µg/mL
same,concentration at 1.5 h,[1],164 µg/mL
same,concentration at 2 h,[1],153 µg/mL
same,concentration at 3 h,[1],152 µg/mL
same,concentration at 4 h,[1],147 µg/mL
same,concentration at 5 h,[1],141 µg/mL
same,concentration at 6 h,[1],120 µg/mL
same,concentration at 24 h,[1]; 24 hours,39 µg/mL
same,concentration at 48 h,[1]; 48 hours,14.4 µg/mL
same,dose excreted at 6 h,[1],14%
same,MIC,[2],1 µg/mL
same,MIC,[3],0.25 µg/mL
same,MIC,[4],0.5 µg/mL
same,MIC,[5],2 µg/mL
same,MIC,[6],1 µg/mL
same,MIC,[7],4 µg/mL
same,MIC,[8],0.06 µg/mL
CO/N=C(\C(=O)NC1C(=O)N2C(C(=O)O)=C(COC(=O)c3ccc(NC(=O)CCN)c(O)c3)CSC12)c1csc(N)n1 (stereo not shown) [SR 43853],MIC,[2],1 µg/mL
same,MIC,[3],0.25 µg/mL
same,MIC,[4],0.25 µg/mL
same,MIC,[5],2 µg/mL
same,MIC,[6],16 µg/mL
same,MIC,[7],4 µg/mL
same,MIC,[8],0.06 µg/mL
"CC(C)(ON=C(C(=O)NC1C(=O)N2C(C(=O)O)=C(COC(=O)c3ccc(NC(=O)CCN)cc3)CSC12)c1csc(N)n1)C(=O)O (stereo not shown) [Product B, reference compound]",Tmax,[9]; 20 mg/kg (Table 6),1.5 h
same,Cmax,[9]; 20 mg/kg (Table 6),24.1 µg/mL
same,half-life,[9]; 20 mg/kg (Table 6),1.65 h
same,AUC(0-t) at 6 h,[9]; 20 mg/kg (Table 6),87.9 µg·h/mL
same,concentration at 6 h,[9]; [11],4.8 µg/mL
same,concentration at 10 min,[9],8.5 µg/mL
same,concentration at 20 min,[9],16.4 µg/mL
same,concentration at 0.5 h,[9],16.9 µg/mL
same,concentration at 0.75 h,[9],17.6 µg/mL
same,concentration at 1 h,[9],20.7 µg/mL
same,concentration at 1.5 h,[9],24.1 µg/mL
same,concentration at 2 h,[9],20.7 µg/mL
same,concentration at 3 h,[9],17.6 µg/mL
same,concentration at 4 h,[9],12.5 µg/mL
same,concentration at 5 h,[9],8.3 µg/mL
same,concentration at 5.5 h,[9],6.8 µg/mL
same,concentration at 6 h,[9]; [12],4.8 µg/mL
same,dose excreted at 6 h,[9],18%
same,fraction unbound,[10],0.52
"CC(C)(ON=C(C(=O)NC1C(=O)N2C(C(=O)O)=C(COC(=O)c3ccc(NS(=O)(=O)CCN)cc3)CSC12)c1csc(N)n1)C(=O)O (stereo not shown) [C, reference compound]",Plasma concentration at 24 h,[1],7.7 µg/mL
same,Plasma concentration at 48 h,[1],0.6 µg/mL
same,Cmax,[1],233 µg/mL
same,half-life,[1],6.3 h
same,AUC(0-inf),[1],1210 µg·h/mL
same,concentration at 0.08 h,[1],233 µg/mL
same,concentration at 0.16 h,[1],213 µg/mL
same,concentration at 0.25 h,[1],190 µg/mL
same,concentration at 0.33 h,[1],170 µg/mL
same,concentration at 0.5 h,[1],124 µg/mL
same,concentration at 0.75 h,[1],121 µg/mL
same,concentration at 1 h,[1],120 µg/mL
same,concentration at 1.5 h,[1],112 µg/mL
same,concentration at 2 h,[1],98.4 µg/mL
same,concentration at 3 h,[1],72.9 µg/mL
same,concentration at 4 h,[1],68.7 µg/mL
same,concentration at 5 h,[1],62.1 µg/mL
same,concentration at 6 h,[1],54.4 µg/mL
same,concentration at 24 h,[1]; 24 hours,7.7 µg/mL
same,concentration at 48 h,[1]; 48 hours,0.6 µg/mL
same,dose excreted at 6 h,[1],18%
"CC(C)(ON=C(C(=O)NC1C(=O)N2C(C(=O)O)=C(COC(=O)c3ccc(NC(=O)CN)cc3)CSC12)c1csc(N)n1)C(=O)O (stereo not shown) [Product A, reference compound]",Tmax,[9]; 20 mg/kg (Table 6),0.75 h
same,Cmax,[9]; 20 mg/kg (Table 6),69.5 µg/mL
same,half-life,[9]; 20 mg/kg (Table 6),3.25 h
same,AUC(0-t) at 6 h,[9]; 20 mg/kg (Table 6),284 µg·h/mL
same,concentration at 6 h,[9]; [11],17.3 µg/mL
same,concentration at 10 min,[9],20.8 µg/mL
same,concentration at 20 min,[9],36.8 µg/mL
same,concentration at 0.5 h,[9],44.4 µg/mL
same,concentration at 0.75 h,[9],59.3 µg/mL
same,concentration at 1 h,[9],60 µg/mL
same,concentration at 1.5 h,[9],55.5 µg/mL
same,concentration at 2 h,[9],53.3 µg/mL
same,concentration at 3 h,[9],40 µg/mL
same,concentration at 4 h,[9],36.2 µg/mL
same,concentration at 5 h,[9],27.2 µg/mL
same,concentration at 5.5 h,[9],23.7 µg/mL
same,concentration at 6 h,[9]; [12],17.3 µg/mL
same,dose excreted at 6 h,[9],23%
same,fraction unbound,[10],0.55
CO/N=C(\C(=O)NC1C(=O)N2C(C(=O)O)=C(COC(=O)c3ccc(NC(=O)CN)c(O)c3)CSC12)c1csc(N)n1 (stereo not shown) [SR 43852],MIC,[2],2 µg/mL
same,MIC,[3],0.25 µg/mL
same,MIC,[4],0.25 µg/mL
same,MIC,[5],2 µg/mL
same,MIC,[6],16 µg/mL
same,MIC,[7],4 µg/mL
same,MIC,[8],0.06 µg/mL
CO/N=C(\C(=O)NC1C(=O)N2C(C(=O)O)=C(COC(=O)c3ccc(NC(=O)[C@@H](N)CCCN)c(O)c3)CSC12)c1csc(N)n1 (stereo partly shown) [SR 44219],MIC,[2],1 µg/mL
same,MIC,[3],0.5 µg/mL
same,MIC,[4],0.12 µg/mL
same,MIC,[5],1 µg/mL
same,MIC,[6],16 µg/mL
same,MIC,[7],4 µg/mL
same,MIC,[8],0.12 µg/mL
CO/N=C(\C(=O)NC1C(=O)N2C(C(=O)O)=C(COC(=O)c3ccc(NC(=O)C(N)CCN)c(O)c3)CSC12)c1csc(N)n1 (stereo not shown) [SR 44218],MIC,[2],2 µg/mL
same,MIC,[3],0.5 µg/mL
same,MIC,[4],0.5 µg/mL
same,MIC,[5],4 µg/mL
same,MIC,[6],16 µg/mL
same,MIC,[7],8 µg/mL
same,MIC,[8],0.25 µg/mL
